In the assay the target is T1, human Keap1 Kelch domain (Homo sapiens, UniProt Q14145).
T1 construct: human Keap1 Kelch domain (residue 321-609, UniProt Q14145); made in house; host or cells: Escherichia coli BL21 (DE3) pLysS, pRSET A vector
The assay can be described thus: Fluorescence polarization (FP) competition assay, Cy5-Nrf2 peptide probe. The format is binding. Particulars: heterologous competition FP; Keap1 Kelch 14 nM, Cy5-Nrf2 probe 3 nM, 4% DMSO; mean ± SEM. As for the experimental part:
The binding affinities between the fluorescent peptide probe Cy5-Nrf2 (SEQ: Cy5-[…]-NH2) and the human Keap1 Kelch domain were determined as Kd values by saturation binding experiments, where increasing concentrations of Keap1 (0-300 nM) were added to a fixed concentration of peptide probe (3 nM). The assay was performed in a 1× HBSTET buffer (10 mM HEPES, 150 mM NaCl, 0.005% Tween20, 3 mM ethylenediaminetetraacetic acid (EDTA), 1 mM TCEP, pH=7.4) using black flat-bottom 384-well plates (Corning Life Sciences, NY), a volume of 30 μL/well, and a final DMSO concentration of 4% or 8%. The assay plate was spun down to ascertain proper mixing and removal of potential air bubbles and incubated for 10-15 min at room temperature before measuring the FP levels on a Safire2 plate reader (Tecan, Mannedorf, Switzerland). The g-factor was adjusted at each experiment so that a series of three blank wells containing probe but no Keap1 Kelch defined the baseline FP value. The Cy5-Nrf2 probe was measured at excitation/emission values of 635:670 nm. The FP values were fitted to the one-site specific binding equation: Y=Bmax×X/(Kd+X), with Bmax being the maximal FP value, X the Keap1 Kelch concentration, and Y the variable FP values. The Kd values were derived from the resulting binding saturation curve as being equal to the Keap1 Kelch concentration, where the curve is half-saturated.
The affinities between nonfluorescent small molecule Keap1 inhibitors and Keap1 Kelch were determined as Ki values in a heterologous competition FP binding assay. This was done by adding increasing concentration of test compound (2-fold serial dilutions, 12 concentrations tested per inhibition curve as duplicates) to a fixed concentration of Keap1 Kelch (14 nM) and the Cy5-Nrf2 peptide probe (3 nM) in the same HBSTET buffer and conditions as described above (final DMSO concentrations were 4%). FP values were fitted to the equation Y=Bottom+(Top−Bottom)/[1+(10^HillSlope×(log IC50−X))], where X is the logarithmic value of compound concentration. Hereby, the IC50 value was obtained, which together with the […] value and probe and Keap1 Kelch concentrations was used to calculate the theoretical competitive inhibition constant, the Ki value. 43 Ki values are shown as mean±SEM (standard error of mean) if based on two or more individual measurements.

Each structure is given as a SMILES string.

T1 sequence (Q14145 321-609): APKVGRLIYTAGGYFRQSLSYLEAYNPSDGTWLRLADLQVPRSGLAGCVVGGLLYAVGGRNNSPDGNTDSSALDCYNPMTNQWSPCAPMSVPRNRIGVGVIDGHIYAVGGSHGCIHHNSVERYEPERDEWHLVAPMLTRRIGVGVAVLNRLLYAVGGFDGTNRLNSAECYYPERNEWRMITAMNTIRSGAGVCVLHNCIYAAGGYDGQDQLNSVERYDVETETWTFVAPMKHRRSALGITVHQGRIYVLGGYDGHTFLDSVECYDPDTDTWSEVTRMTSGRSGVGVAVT

`Cc1cc2c(cc1C(CC(=O)O)c1ccc3ccc(OCC(=O)NC4C=CCCC4)cc3c1)OCO2` (stereo not shown) [4b, 3-(7-(2-(Cyclohex-2-en-1-ylamino)-2-oxoethoxy)naphthalen-2-yl)-3-(6-methylbenzo[d][1,3]dioxol-5-yl)propanoic acid]: the inhibition constant Ki is 0.004 ± 0.001 µM.
As for `Cc1c(Cl)cccc1C(CC(=O)O)c1ccc2ccc(OCC(=O)NC3C=CCCC3)cc2c1` (stereo not shown) [4c, 3-(3-Chloro-2-methylphenyl)-3-(7-(2-(cyclohex-2-en-1-ylamino)-2-oxoethoxy)naphthalen-2-yl)propanoic acid], the Ki worked out at 0.038 ± 0.006 µM.
In the case of `O=C(O)CC(c1ccc2c(c1)OCO2)c1ccc2ccc(OCC(=O)NC34CC5CC(CC(C5)C3)C4)cc2c1` [6e, 3-(7-(2-(((1S,3s)-adamantan-1-yl)amino)-2-oxoethoxy)naphthalen-2-yl)-3-(benzo[d][1,3]dioxol-5-yl)propanoic acid] it was 0.516 ± 0.115 µM; in that of `O=C(O)CC(c1ccc2c(c1)CCO2)c1ccc2ccc(OCC(=O)NC3C=CCCC3)cc2c1` (stereo not shown) [4e, 3-(7-(2-(Cyclohex-2-en-1-ylamino)-2-oxoethoxy)naphthalen-2-yl)-3-(2,3-dihydrobenzofuran-5-yl)propanoic acid], 0.027 ± 0.004 µM; in that of `CC(C)CNC(=O)COc1ccc2ccc(C(CC(=O)O)c3ccc4c(c3)OCO4)cc2c1` (stereo not shown) [6c, 3-(benzo[d][1,3]dioxol-5-yl)-3-(7-(2-(isobutylamino)-2-oxoethoxy)naphthalen-2-yl)propanoic acid], 0.138 ± 0.024 µM.
For `Cc1cc2c(cc1C(CC(=O)O)c1ccc3ccc(OCC(=O)NC4CCCCC4)cc3c1)CCO2` (stereo not shown) [3t, 3-(7-(2-(cyclohexylamino)-2-oxoethoxy)naphthalen-2-yl)-3-(6-methyl-2,3-dihydrobenzofuran-5-yl)propanoic acid], the Ki stood at 0.032 ± 0.001 µM.
On to `COc1ccc(C(CC(=O)O)c2ccc3ccc(OCC(=O)NC4CCCCCC4)cc3c2)cc1` (stereo not shown) [2d, 3-(7-(2-(Cycloheptylamino)-2-oxoethoxy)naphthalen-2-yl)-3-(4-methoxyphenyl)propanoic acid], for which the Ki is 0.032 ± 0.03 µM.
Take `O=C(O)CC(c1ccc2c(c1)OC(F)(F)O2)c1ccc2ccc(OCC(=O)NC3CCCCCC3)cc2c1` (stereo not shown) [2r, 3-(7-(2-(cycloheptylamino)-2-oxoethoxy)naphthalen-2-yl)-3-(2,2-difluorobenzo[d][1,3]dioxol-5-yl)propanoic acid]: the Ki is 0.034 ± 0.005 µM.
In the case of `O=C(O)CC(c1cccc(Cl)c1)c1ccc2ccc(OCC(=O)NC3CCCCC3)cc2c1` (stereo not shown) [3d, 3-(3-chlorophenyl)-3-(7-(2-(cyclohexylamino)-2-oxoethoxy)naphthalen-2-yl)propanoic acid], the Ki came to 0.47 ± 0.047 µM.
Consider `O=C(O)CC(c1ccc2ccc(OCC(=O)NC3CCCCC3)cc2c1)c1ccc2occc2c1` (stereo not shown) [3o, 3-(Benzofuran-5-yl)-3-(7-(2-(cyclohexylamino)-2-oxoethoxy)naphthalen-2-yl)propanoic acid], for which the inhibitory constant (Ki) worked out at 0.068 ± 0.012 µM.
For `O=C(O)CC(c1ccc2c(c1)OCO2)c1ccc2ccc(OCC(=O)NC3CCC(F)(F)CC3)cc2c1` (stereo not shown) [6b, 3-(benzo[d][1,3]dioxol-5-yl)-3-(7-(2-((4,4-difluorocyclohexyl)amino)-2-oxoethoxy)naphthalen-2-yl)propanoic acid], the Ki is 0.08 ± 0.01 µM.
In the case of `CCCC1CCCCN1C(=O)COc1ccc2ccc(C(CC(=O)O)c3ccc4c(c3)OCO4)cc2c1` (stereo not shown) [6k, 3-(benzo[d][1,3]dioxol-5-yl)-3-(7-(2-oxo-2-(2-propylpiperidin-1-yl)ethoxy)naphthalen-2-yl)propanoic acid], the inhibition constant (Ki) was determined as 0.063 ± 0.003 µM.
On to `COc1cc(C)c(C(CC(=O)O)c2ccc3ccc(OCC(=O)NC4CCCCC4)cc3c2)c(C)c1` (stereo not shown) [3c, 3-(7-(2-(cyclohexylamino)-2-oxoethoxy)naphthalen-2-yl)-3-(4-methoxy-2,6-dimethylphenyl)propanoic acid], for which the Ki was determined as 0.168 ± 0.003 µM.
In the case of `O=C(O)CC(c1ccc2c(c1)CCO2)c1ccc2ccc(OCC(=O)NC3CCCCCC3)cc2c1` (stereo not shown) [2q, 3-(7-(2-(cycloheptylamino)-2-oxoethoxy)naphthalen-2-yl)-3-(2,3-dihydrobenzofuran-5-yl)propanoic acid] it was 0.036 ± 0.003 µM; in that of `Cc1cc2c(cc1C(CC(=O)O)c1ccc3ccc(OCC(=O)NC4C=CCCC4)cc3c1)CCO2` (stereo not shown) [4n, 3-(7-(2-(cyclohex-2-en-1-ylamino)-2-oxoethoxy)naphthalen-2-yl)-3-(6-methyl-2,3-dihydrobenzofuran-5-yl)propanoic acid], 0.018 ± 0.002 µM; in that of `Cc1cc(C)c(NC(=O)COc2ccc3ccc(CCC(=O)O)cc3c2)c(C)c1` [1f, 3-(7-(2-(Mesitylamino)-2-oxoethoxy)naphthalen-2-yl)propanoic acid], 22 ± 0.8 µM.
For the compound `COc1cccc(C(CC(=O)O)c2ccc3ccc(OCC(=O)NC4CCCCCC4)cc3c2)c1` (stereo not shown) [2h, 3-(7-(2-(Cycloheptylamino)-2-oxoethoxy)naphthalen-2-yl)-3-(3-methoxyphenyl)propanoic acid], the Ki turned out to be 0.284 ± 0.03 µM.
As for `O=C(O)CC(c1ccc2ccc(OCC(=O)NC3CCCCCC3)cc2c1)c1cc2c(cc1Cl)OCO2` (stereo not shown) [2z, 3-(6-chlorobenzo[d][1,3]dioxol-5-yl)-3-(7-(2-(cycloheptylamino)-2-oxoethoxy)naphthalen-2-yl)propanoic acid], the Ki was found to be 0.009 ± 0.002 µM.
As for `COc1ccc(C(CC(=O)O)c2ccc3ccc(OCC(=O)NC4CCCCC4)cc3c2)c(C)c1` (stereo not shown) [3b, 3-(7-(2-(cyclohexylamino)-2-oxoethoxy)naphthalen-2-yl)-3-(4-methoxy-2-methylphenyl)propanoic acid], the inhibition constant (Ki) worked out at 0.054 µM.
In the case of `O=C(O)CCc1ccc2ccc(OCC(=O)NC3CCOCC3)cc2c1` [1b, 3-(7-(2-Oxo-2-((tetrahydro-2H-pyran-4-yl)amino)ethoxy)naphthalen-2-yl)propanoic acid] it was 38 ± 3 µM; in that of `Cc1nc2[nH]ccc2cc1C(CC(=O)O)c1ccc2ccc(OCC(=O)NC3CCCCC3)cc2c1` (stereo not shown) [3n, 3-(7-(2-(cyclohexylamino)-2-oxoethoxy)naphthalen-2-yl)-3-(6-methyl-1H-pyrrolo[2,3-b]pyridin-5-yl)propanoic acid], 0.129 ± 0.013 µM; in that of `O=C(O)CC(c1ccc2c(c1)OCCO2)c1ccc2ccc(OCC(=O)NC3CCCCCC3)cc2c1` (stereo not shown) [2s, 3-(7-(2-(cycloheptylamino)-2-oxoethoxy)naphthalen-2-yl)-3-(2,3-dihydrobenzo[b][1,4]dioxin-6-yl)propanoic acid], 0.015 ± 0.003 µM.
In the case of `Cc1c(Cl)cccc1C(CC(=O)O)c1ccc2ccc(OCC(=O)NC3CCCCCC3)cc2c1` (stereo not shown) [2l, 3-(3-chloro-2-methylphenyl)-3-(7-(2-(cycloheptylamino)-2-oxoethoxy)naphthalen-2-yl)propanoic acid], the Ki stood at 0.06 ± 0.008 µM.
As to `Cc1cc2c(cc1C(CC(=O)O)c1ccc3ccc(OCC(=O)NC4CCCCC4)cc3c1)OC(F)(F)O2` (stereo not shown) [3r], the Ki was 0.007 ± 0.001 µM.
In the case of `O=C(O)CC(c1cccc(Cl)c1)c1ccc2ccc(OCC(=O)NC3CCCCCC3)cc2c1` (stereo not shown) [2i, 3-(3-Chlorophenyl)-3-(7-(2-(cycloheptylamino)-2-oxoethoxy)naphthalen-2-yl)propanoic acid], the inhibition constant Ki came to 0.054 ± 0.006 µM.
Consider `O=C(O)CC(c1ccc2c(c1)OCCO2)c1ccc2ccc(OCC(=O)NC3CCCCC3)cc2c1` (stereo not shown) [3l, 3-(7-(2-(cyclohexylamino)-2-oxoethoxy)naphthalen-2-yl)-3-(2,3-dihydrobenzo[b][1,4]dioxin-6-yl)propanoic acid], for which the Ki came to 0.029 ± 0.001 µM.
In the case of `Cc1cc(C)c(C)c(NC(=O)COc2ccc3ccc(CCC(=O)O)cc3c2)c1C` [1g, 3-(7-(2-Oxo-2-((2,3,5,6-tetramethylphenyl)amino)ethoxy)naphthalen-2-yl)propanoic acid] it was 196 ± 24 µM.
As for `CC1(C)Oc2ccc(C(CC(=O)O)c3ccc4ccc(OCC(=O)NC5CCCCC5)cc4c3)cc2O1` (stereo not shown) [3j, 3-(7-(2-(cyclohexylamino)-2-oxoethoxy)naphthalen-2-yl)-3-(2,2-dimethylbenzo[d][1,3]dioxol-5-yl)propanoic acid], the Ki stood at 0.14 ± 0.011 µM.
As to `O=C(O)CCc1ccc2ccc(OCC(=O)NC3CCCCCC3)cc2c1` [1d, 3-(7-(2-(Cycloheptylamino)-2-oxoethoxy)naphthalen-2-yl)propanoic acid], the Ki was found to be 6 ± 0.3 µM.
Turning to `Cc1c(Cl)cccc1C(CC(=O)O)c1ccc2ccc(OCC(=O)NC3CCCCC3)cc2c1` (stereo not shown) [3e, 3-(3-chloro-2-methylphenyl)-3-(7-(2-(cyclohexylamino)-2-oxoethoxy)naphthalen-2-yl)propanoic acid], the Ki was found to be 0.066 ± 0.006 µM.
Turning to `O=C(O)CC(c1ccc(O)cc1)c1ccc2ccc(OCC(=O)NC3CCCCCC3)cc2c1` (stereo not shown) [2b, 3-(7-(2-(Cycloheptylamino)-2-oxoethoxy)naphthalen-2-yl)-3-(4-hydroxyphenyl)propanoic acid], the inhibition constant (Ki) stood at 0.181 ± 0.02 µM.

(Values after US20260193170A1 (University of Copenhagen, priority 2022, published 2026).)
